Measured values taken from US4454122A, “Adenosine derivatives of anti-inflammatory and analgesic activity, and therapeutic compositions which contain them as their active principle” (Bioresearch S.r.l., priority 1982, dated 1984).

Columns and labels:
Type in all cases: in vivo
[1] = test system: experimental edema in the rat by carragen; test: experimental edema in the rat by carragen (Winter method), percentage protection; conditions: po, rat, read-out: Percent protection calculated on edema development; for inhibition in vivo at 80 mg/kg: 80 mg/kg orally; for inhibition in vivo at 85 mg/kg: 85 mg/kg orally
mouse = test: hot plate test on the mouse according to Roberts (analgesic activity); conditions: 100 mg/kg, oral
Description: C--The analgesic activity of the products was tested by two tests considered very significant.
In the hot plate test on the mouse according to Roberts (Roberts E. Simonsen D.G. (1966) Biochem. Pharmac. 15, 1875-) the MTA gives a protection of 50% with an oral dose of 37 mg/kg. An approximately equivalent protection of 58% is obtained with 100 mg/kg of amidopyrine administered orally.

[2] = test system: fever induced in the rat by beer yeast; test: fever induced in the rat by beer yeast (antipyretic activity); conditions: 200 mg/kg, orally
Description: This was measured for the new products by means of fever induced in the rat by beer yeast (Winder C. V. et al (1961) J. Pharmacol. Exp. Ther. 133, 117).

`CC(C)SC[C@H]1O[C@@H](n2cnc3c(N)ncnc32)[C@H](O)[C@@H]1O` gave an inhibition in vivo at 80 mg/kg [1] of 45%.
`CCC(C)SC[C@H]1O[C@@H](n2cnc3c(N)ncnc32)[C@H](O)[C@@H]1O` (stereo partly drawn) gave an inhibition in vivo at 85 mg/kg [1] of 35%.
`CSC[C@H]1O[C@@H](n2cnc3c(NC(C)=O)ncnc32)[C@H](OC(C)=O)[C@@H]1OC(C)=O` [n = 0 R = CH3, R1 = R2 = COCH3, N^6,2',3'-triacetyl-5'-deoxy-5'-thioadenosine] gave an inhibition in vivo at 114 mg/kg ([1]; 114 mg/kg orally) of 47%.
For `CSC[C@H]1O[C@@H](n2cnc3c(NS(=O)(=O)c4ccc(C)cc4)ncnc32)[C@H](OS(=O)(=O)c2ccc(C)cc2)[C@@H]1OS(=O)(=O)c1ccc(C)cc1` [n = 0 R = CH3, R1 = R2 = tosyl], the inhibition in vivo at 204 mg/kg ([1]; 204 mg/kg orally) was 15%.
With `CCCCCSC[C@H]1O[C@@H](n2cnc3c(N)ncnc32)[C@H](O)[C@@H]1O` [n = 0 R = (CH2)4CH3, R1 = R2 = H] the inhibition in vivo at 90 mg/kg ([1]; 90 mg/kg orally) was 25%.
`CSC[C@H]1O[C@@H](n2cnc3c(NC(=O)c4ccccc4)ncnc32)[C@H](OC(=O)c2ccccc2)[C@@H]1OC(=O)c1ccccc1` [n = 0 R = CH3, R1 = R2 = COC6 H5] was tested, and the inhibition in vivo at 164 mg/kg ([1]; 164 mg/kg orally) was 10%.
For `CCCCCCCSC[C@H]1O[C@@H](n2cnc3c(N)ncnc32)[C@H](O)[C@@H]1O` [n = 0 R = (CH2)6CH3, R1 = R2 = H], the inhibition in vivo at 95 mg/kg ([1]; 95 mg/kg orally) was 20%.
Work on `CC(C)CSC[C@H]1O[C@@H](n2cnc3c(N)ncnc32)[C@H](O)[C@@H]1O` yielded an inhibition in vivo at 85 mg/kg [1] of 62%.
With `CCCCSC[C@H]1O[C@@H](n2cnc3c(N)ncnc32)[C@H](O)[C@@H]1O` [n = 0 R = (CH2)3CH3, R1 = R2 = H] the inhibition in vivo at 85 mg/kg [1] was 39%.
In the case of `Cc1c(N(C)C)c(=O)n(-c2ccccc2)n1C` [amidopyrine, reference compound], the “protection in the hot plate test” value (mouse) is reported as 58% and the temperature reduction [2] is reported as 4.69%.
`CCSC[C@H]1O[C@@H](n2cnc3c(N)ncnc32)[C@H](O)[C@@H]1O` [n = 0 R = CH2CH3, R1 = R2 = H, 5'-deoxy-5'-ethylthioadenosine] showed an inhibition in vivo at 80 mg/kg [1] of 44%.
Work on `CSC[C@H]1O[C@@H](n2cnc3c(N)ncnc32)[C@@H]2OC(C)(C)O[C@@H]21` [n = 0 R = CH3, R1 = H, R2R1 = isopropyl, 5'-deoxy-2',3'-isopropylidene-5'-methylthioadenosine] yielded an inhibition in vivo at 91 mg/kg ([1]; 91 mg/kg orally) of 20%.
Work on `Nc1ncnc2c1ncn2[C@@H]1O[C@H](CSCc2ccccc2)[C@@H](O)[C@H]1O` [n = 0 R = CH2C6 H5, R1 = R2 = H] yielded an inhibition in vivo at 47 mg/kg ([1]; 47 mg/kg orally) of 10%.
In the case of `CCCCCCCCCCSC[C@H]1O[C@@H](n2cnc3c(N)ncnc32)[C@H](O)[C@@H]1O` [n = 0 R = (CH2)9CH3, R1 = R2 = H], the inhibition in vivo at 106 mg/kg ([1]; 106 mg/kg orally) is reported as 33%.
`CCCCCCCCCCCCSC[C@H]1O[C@@H](n2cnc3c(N)ncnc32)[C@H](O)[C@@H]1O` [n = 0 R = (CH2)11CH3, R1 = R2 =] gave an inhibition in vivo at 112 mg/kg ([1]; 112 mg/kg orally) of 10%.
`CCCCCCCCSC[C@H]1O[C@@H](n2cnc3c(N)ncnc32)[C@H](O)[C@@H]1O` [n = 0 R = (CH2)7CH3, R1 = R2 = H] gave an inhibition in vivo at 100 mg/kg ([1]; 100 mg/kg orally) of 47%.
With `CCCSC[C@H]1O[C@@H](n2cnc3c(N)ncnc32)[C@H](O)[C@@H]1O` [n = 0 R = (CH2)2CH3, R1 = R2 = H] the inhibition in vivo at 80 mg/kg [1] was 53%.
